From ChEMBL document CHEMBL1201862, “PubChem BioAssay data set” (2004)
Calls of active or inactive are those of the source.

Experiments:
Bcl-2-related protein A1 = biological target: T1, Bcl-2-related protein A1 (Mus musculus, UniProt Q07440); format: functional;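 note: confirmatory dose–response counterscreen on Bfl-1, used to check hits from a UBC13 polyubiquitin inhibitor campaign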
T1 sequence (Q07440 whole entry): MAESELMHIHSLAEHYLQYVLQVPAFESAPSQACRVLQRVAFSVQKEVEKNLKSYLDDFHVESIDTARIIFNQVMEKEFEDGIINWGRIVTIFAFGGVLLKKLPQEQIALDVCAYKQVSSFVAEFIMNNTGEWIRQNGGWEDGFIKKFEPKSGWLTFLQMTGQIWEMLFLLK

[1] = biological target: T2, Ubiquitin-conjugating enzyme E2 N (Homo sapiens, UniProt P61088); format: functional
T2 sequence (P61088 whole entry): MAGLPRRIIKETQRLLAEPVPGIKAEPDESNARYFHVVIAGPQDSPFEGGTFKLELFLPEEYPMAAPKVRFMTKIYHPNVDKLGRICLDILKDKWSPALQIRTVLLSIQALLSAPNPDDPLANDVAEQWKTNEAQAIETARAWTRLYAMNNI

[2] = biological target: T2, Ubiquitin-conjugating enzyme E2 N; format: functional; remark: listed apart in the source
[3] = biological target: Voltage-dependent T-type calcium channel subunit alpha-1H (Homo sapiens, UniProt O95180); format: functional;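 note: channel activity triggered by adding a high calcium stimulation buffer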
[4] = luciferase reporter signal reduction – luminescence, H4-C neuroglioblastoma cells, dose response (AID 2458); format: functional, cell-based;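 note: H4 neuroglioblastoma cells stably carrying a luciferase reporter gene fusion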
[5] = alpha-synuclein stem-loop luciferase translation blockers – H4 neuroglioma cells, luminescence, confirmation (AID 1988); format: functional, cell-based
[6] = Luminescence Cell-Based Dose Response HTS to Identify Inhibitors of 5'UTR Stem-Loop Driven Prion Protein mRNA Translation in H4 Neuroglioblastoma Cells. [Related pubchem assays: 1827 (Project Summary), 1813 (Primary HTS)]; format: functional
[7] = alpha-synuclein stem-loop translation blockers – luminescence, H4 neuroglioblastoma cells, dose confirmation, confirmation (AID 2454); format: functional, cell-based;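 note: H4 neuroglioblastoma cells carrying an alpha-synuclein 5'UTR luciferase reporter; potency for inhibition of the luciferase signal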
[8] = luciferase reporter signal suppression in cells – H4 neuroglioma cells, luminescence, dose response (AID 1990); format: functional, cell-based
cells [9] = format: functional, cell-based
[10] = NIH3T3 cell viability loss – ATP luminescence, mouse fibroblasts, counter-screen, dose response (AID 2010); format: functional, cell-based;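 note: cells exposed to compound for about 90 hours before reading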
cells [11] = format: functional
[12] = viability of HCT116 lacking mutant beta-catenin – cell-based, human colon tumor, dose response (AID 1045); format: functional;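 note: HCT116 colon tumor cells with beta catenin knocked out; cells exposed to compound for 60 hours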
[13] = THP-1 cell cytotoxicity, dose response, cytotoxicity control for non-replicating M. tuberculosis project (AID 489025); format: functional
[14] = Trypanosoma cruzi growth suppression in host cells – NIH3T3 host cells, beta-gal luminescence, confirmation (AID 2044); format: functional, cell-based;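 note: intracellular parasites grown in NIH/3T3 mouse fibroblasts as host cells; luminescent beta-galactosidase reporter signal from transgenic T. cruzi replicating inside host cells; inhibitors lower the luminescence signal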
Melanocortin receptor 4 = Melanocortin receptor 4 (Homo sapiens, UniProt P32245); format: functional, cell-based;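 note: Cell-based assay with luminescence read-out, confirmatory dose-response testing for agonist activity of biased ligands at MC4R; human U2OS cells with tagged receptor and beta-arrestin; potency of agonists that increase receptor coupling to beta-arrestin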
[15] = Luminescence Cell-Based Dose Retest to Confirm Inhibitors of Cancer Stem Cells. [Related pubchem assays (depositor defined):AID2717, AID2721]; format: functional; conditions: Homo sapiens
[16] = viability of PTEN-deleted HCT116 cells – cell-based, HCT116 PTEN knockout, dose response (AID 1047); format: functional;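 note: HCT116 colon tumor cells with PTEN knocked out; cells exposed to compound for 60 hours before readout; potency for loss of cell viability measured by luminescence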
[17] = biological target: T3, Polyadenylate-binding protein 1 (Homo sapiens, UniProt P11940); assay: MLLE domain peptide-binding blockers, IC50 – biochemical, fluorescence polarization, FITC-PAM2 peptide, dose response (AID 602259); format: functional; conditions: read-out: IC50_Mean
[18] = biological target: T3, Polyadenylate-binding protein 1; assay: MLLE binding blockers, Cy5 peptide tracer – biochemical, fluorescence polarization, Cy5-PAM2 peptide, secondary, miRNA deadenylation inhibitor project, dose response (AID 602260); format: functional; conditions: read-out: IC50_Mean
[19] = biological target: DNA dC->dU-editing enzyme APOBEC-3G (Homo sapiens, UniProt Q9HC16); assay: Dose Response confirmation of small molecule APOBEC3G DNA Deaminase Inhibitors via a fluorescence-based single-stranded DNA deaminase assay. [Related pubchem assays (depositor defined):AID493012, AID493028]; format: functional
[20] = biological target: Cyclin-dependent kinase 5/CDK5 activator 1 (Homo sapiens, UniProt Q00535); assay: blockade of human CDK5 activity – biochemical, cherry-picked samples, set 2, dose response (AID 504545)
Protein RecA = biological target: T4, Protein RecA (Mycobacterium tuberculosis, UniProt P9WHJ3); assay: Fluorescence Cell-Free Homogeneous Dose Retest to Identify Inhibitors of RecA-Intein Splicing Activity. [Related pubchem assays (depositor defined):AID2097, AID2223, AID489010, AID492950]; format: functional
T4 sequence (P9WHJ3 whole entry): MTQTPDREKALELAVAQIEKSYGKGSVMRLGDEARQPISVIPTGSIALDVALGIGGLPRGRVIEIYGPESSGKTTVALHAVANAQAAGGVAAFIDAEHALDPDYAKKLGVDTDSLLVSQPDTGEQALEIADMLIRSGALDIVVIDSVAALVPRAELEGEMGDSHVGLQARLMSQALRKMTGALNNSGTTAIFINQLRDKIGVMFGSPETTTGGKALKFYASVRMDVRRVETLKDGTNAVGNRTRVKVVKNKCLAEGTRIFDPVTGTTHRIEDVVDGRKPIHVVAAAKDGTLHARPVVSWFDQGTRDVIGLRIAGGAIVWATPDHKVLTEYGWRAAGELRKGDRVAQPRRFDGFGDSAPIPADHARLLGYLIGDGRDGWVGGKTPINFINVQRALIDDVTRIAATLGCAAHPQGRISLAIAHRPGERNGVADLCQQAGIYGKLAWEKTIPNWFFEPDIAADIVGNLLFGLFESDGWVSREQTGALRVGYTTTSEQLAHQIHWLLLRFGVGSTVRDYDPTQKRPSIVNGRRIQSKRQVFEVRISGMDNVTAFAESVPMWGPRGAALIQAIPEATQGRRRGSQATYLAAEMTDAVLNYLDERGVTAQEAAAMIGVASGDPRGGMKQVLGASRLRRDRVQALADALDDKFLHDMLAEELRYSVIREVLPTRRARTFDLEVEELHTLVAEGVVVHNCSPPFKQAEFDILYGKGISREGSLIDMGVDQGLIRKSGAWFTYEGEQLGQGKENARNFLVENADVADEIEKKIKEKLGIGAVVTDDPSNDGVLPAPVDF

[21] = A Cell Based Secondary Assay To Explore Cytotoxicity of Compounds that Sensitize Mycobacterium Tuberculosis to Beta-Lactam Antibiotics.; format: functional

T3 sequence (P11940 whole entry, the tested form may be a part): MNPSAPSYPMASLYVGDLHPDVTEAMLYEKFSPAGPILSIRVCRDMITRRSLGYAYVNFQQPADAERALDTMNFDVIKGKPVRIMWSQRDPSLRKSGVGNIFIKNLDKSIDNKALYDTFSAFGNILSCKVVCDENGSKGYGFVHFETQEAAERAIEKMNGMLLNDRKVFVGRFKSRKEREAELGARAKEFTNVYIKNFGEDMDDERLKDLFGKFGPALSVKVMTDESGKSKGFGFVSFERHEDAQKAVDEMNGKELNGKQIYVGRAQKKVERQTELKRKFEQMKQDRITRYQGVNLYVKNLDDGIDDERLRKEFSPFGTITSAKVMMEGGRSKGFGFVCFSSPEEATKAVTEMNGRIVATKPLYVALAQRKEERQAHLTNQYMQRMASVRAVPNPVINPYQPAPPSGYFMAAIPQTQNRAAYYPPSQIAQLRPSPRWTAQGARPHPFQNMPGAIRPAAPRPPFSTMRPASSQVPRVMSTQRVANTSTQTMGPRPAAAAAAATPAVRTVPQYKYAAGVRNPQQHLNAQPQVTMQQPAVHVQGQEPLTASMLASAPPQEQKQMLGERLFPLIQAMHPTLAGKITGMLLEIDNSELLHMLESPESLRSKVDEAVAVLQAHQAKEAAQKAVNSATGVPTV
Voltage-dependent T-type calcium channel subunit alpha-1H, sequence (O95180 whole entry, the tested form may be a part): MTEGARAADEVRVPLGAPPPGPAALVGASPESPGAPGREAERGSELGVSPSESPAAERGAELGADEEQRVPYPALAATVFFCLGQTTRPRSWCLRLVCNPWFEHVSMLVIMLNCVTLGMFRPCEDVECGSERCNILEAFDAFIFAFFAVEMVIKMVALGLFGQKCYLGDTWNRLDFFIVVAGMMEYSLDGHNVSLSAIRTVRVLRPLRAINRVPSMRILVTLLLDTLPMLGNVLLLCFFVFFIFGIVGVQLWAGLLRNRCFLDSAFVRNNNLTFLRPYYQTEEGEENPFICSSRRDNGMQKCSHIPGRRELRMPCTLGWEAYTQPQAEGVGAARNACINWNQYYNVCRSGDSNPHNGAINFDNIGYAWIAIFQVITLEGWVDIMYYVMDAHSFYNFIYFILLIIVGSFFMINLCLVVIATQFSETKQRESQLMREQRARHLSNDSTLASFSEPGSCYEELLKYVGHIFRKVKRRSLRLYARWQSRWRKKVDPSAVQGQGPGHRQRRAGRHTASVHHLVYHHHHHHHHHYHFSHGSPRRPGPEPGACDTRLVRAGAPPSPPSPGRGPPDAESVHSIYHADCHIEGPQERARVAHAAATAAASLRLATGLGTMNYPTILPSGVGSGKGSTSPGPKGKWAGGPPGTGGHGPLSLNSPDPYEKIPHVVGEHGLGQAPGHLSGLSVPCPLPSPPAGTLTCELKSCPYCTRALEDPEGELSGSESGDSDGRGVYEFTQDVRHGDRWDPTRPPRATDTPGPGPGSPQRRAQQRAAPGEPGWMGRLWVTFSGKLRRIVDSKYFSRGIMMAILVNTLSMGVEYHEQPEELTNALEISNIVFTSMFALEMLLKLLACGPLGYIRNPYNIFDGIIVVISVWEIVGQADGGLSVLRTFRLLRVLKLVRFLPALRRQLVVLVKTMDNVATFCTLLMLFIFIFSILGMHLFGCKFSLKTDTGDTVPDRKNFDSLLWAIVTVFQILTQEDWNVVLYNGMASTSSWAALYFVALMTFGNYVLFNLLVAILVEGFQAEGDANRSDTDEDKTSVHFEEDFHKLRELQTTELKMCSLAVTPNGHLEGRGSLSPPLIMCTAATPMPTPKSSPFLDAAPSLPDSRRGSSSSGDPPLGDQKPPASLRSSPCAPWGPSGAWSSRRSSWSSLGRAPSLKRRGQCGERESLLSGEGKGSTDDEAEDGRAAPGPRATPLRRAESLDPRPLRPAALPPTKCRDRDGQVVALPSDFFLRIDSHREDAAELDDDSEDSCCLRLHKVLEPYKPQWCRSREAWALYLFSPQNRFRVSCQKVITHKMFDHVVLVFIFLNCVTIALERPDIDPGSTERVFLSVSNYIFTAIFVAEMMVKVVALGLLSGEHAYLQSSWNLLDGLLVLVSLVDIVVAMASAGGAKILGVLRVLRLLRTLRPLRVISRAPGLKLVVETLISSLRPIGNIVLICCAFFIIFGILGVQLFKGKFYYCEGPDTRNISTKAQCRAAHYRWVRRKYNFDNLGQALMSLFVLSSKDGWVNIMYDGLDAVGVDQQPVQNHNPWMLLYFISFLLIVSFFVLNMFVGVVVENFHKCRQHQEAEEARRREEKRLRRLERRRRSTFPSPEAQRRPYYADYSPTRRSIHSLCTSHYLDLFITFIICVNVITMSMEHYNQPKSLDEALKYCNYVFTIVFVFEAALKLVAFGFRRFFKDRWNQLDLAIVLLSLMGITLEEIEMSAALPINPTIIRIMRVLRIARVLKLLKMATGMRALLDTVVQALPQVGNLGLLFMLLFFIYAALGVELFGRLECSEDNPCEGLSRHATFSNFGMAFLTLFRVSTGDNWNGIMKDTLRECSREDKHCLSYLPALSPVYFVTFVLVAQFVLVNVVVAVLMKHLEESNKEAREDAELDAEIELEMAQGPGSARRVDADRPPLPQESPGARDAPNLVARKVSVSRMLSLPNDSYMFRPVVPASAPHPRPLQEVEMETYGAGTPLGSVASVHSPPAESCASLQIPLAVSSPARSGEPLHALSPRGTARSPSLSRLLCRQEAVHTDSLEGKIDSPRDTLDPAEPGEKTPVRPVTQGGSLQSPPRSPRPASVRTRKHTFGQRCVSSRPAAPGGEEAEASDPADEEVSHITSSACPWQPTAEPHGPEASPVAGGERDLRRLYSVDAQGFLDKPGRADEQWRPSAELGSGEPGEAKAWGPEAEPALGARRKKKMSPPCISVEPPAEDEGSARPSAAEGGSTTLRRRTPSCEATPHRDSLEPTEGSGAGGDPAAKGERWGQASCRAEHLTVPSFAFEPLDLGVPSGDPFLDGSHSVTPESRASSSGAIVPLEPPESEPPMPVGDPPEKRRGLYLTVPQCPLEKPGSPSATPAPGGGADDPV
Melanocortin receptor 4, sequence (P32245 whole entry): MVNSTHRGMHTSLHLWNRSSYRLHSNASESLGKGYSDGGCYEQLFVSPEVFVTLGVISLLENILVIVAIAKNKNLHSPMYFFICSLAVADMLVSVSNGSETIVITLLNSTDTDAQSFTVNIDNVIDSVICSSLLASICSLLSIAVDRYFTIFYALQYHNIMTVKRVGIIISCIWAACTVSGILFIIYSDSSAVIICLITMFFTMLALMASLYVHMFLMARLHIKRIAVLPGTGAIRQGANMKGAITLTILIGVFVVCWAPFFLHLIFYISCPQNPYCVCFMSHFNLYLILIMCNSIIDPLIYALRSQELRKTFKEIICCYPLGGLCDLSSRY
Cyclin-dependent kinase 5/CDK5 activator 1, sequence (Q00535 whole entry): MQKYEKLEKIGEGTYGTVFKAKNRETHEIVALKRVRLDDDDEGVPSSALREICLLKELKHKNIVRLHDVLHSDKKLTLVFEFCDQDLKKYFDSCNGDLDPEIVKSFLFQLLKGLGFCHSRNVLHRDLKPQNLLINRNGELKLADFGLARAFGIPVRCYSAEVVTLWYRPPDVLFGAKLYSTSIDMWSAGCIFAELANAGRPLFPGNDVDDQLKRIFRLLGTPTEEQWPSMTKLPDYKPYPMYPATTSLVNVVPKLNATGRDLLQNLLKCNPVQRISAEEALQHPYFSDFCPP
Cyclin-dependent kinase 5/CDK5 activator 1, sequence (Q15078 whole entry, further chain): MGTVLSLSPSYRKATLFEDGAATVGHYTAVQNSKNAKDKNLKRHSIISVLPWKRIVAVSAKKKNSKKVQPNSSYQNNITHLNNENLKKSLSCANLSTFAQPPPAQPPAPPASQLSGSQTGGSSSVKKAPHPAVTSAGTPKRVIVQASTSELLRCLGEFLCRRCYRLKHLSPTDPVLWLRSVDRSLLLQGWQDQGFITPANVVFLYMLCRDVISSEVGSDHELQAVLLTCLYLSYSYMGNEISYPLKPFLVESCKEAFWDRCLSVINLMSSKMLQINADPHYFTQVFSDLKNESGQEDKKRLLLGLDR
DNA dC->dU-editing enzyme APOBEC-3G, sequence (Q9HC16 whole entry): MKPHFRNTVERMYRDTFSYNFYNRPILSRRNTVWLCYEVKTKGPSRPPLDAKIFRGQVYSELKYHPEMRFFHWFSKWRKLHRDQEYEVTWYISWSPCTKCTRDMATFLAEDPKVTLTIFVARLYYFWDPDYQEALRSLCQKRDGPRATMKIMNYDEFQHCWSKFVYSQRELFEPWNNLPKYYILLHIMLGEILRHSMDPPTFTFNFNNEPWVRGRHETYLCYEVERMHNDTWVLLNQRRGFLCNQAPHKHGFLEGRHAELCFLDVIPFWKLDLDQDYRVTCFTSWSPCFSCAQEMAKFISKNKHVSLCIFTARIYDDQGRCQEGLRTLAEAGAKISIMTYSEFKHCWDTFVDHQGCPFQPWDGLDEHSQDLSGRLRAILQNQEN

SMILES: NNC(=O)c1ccc(CN2C(=O)c3cccc4cccc2c34)cc1
- IC50 (Bcl-2-related protein A1): > 20 µM (inactive)
- IC50 [1]: 3.55 µM (active)
- IC50 [2]: 8.94 µM (active)

SMILES: CCCC(=O)N1CCN(c2ccc([N+](=O)[O-])c(NC(C)c3ccccc3)c2)CC1 (stereo not drawn)
- EC50 [3]: 5.51 µM (active)

SMILES: C/C=C(\C)C(=O)OC1C(C)=C2C(C1OC(=O)CCCCC)C(C)(OC(C)=O)CC(OC(=O)CCC)C1(O)C2OC(=O)C1(C)O (stereo not drawn)
- EC50 [4]: 0.051 µM (active)
- EC50 [5]: < 0.1 µM (active)
- EC50 [6]: < 0.1 µM (active)
- EC50 [7]: 0.047 µM (active)
- EC50 [8]: < 0.1 µM (active)
- EC50 (cells [9]): 0.228 µM (active)

SMILES: COc1ccc(OC)c(CCNC(=O)CS(=O)(=O)Cc2nc(-c3ccc(C)cc3)oc2C)c1
- EC50 [3]: 3.8 µM (active)

SMILES: OC(CNCCc1ccc(C(F)(F)F)cc1)COc1cccc2ccccc12 (stereo not drawn)
- EC50 [10]: > 60 µM (inconclusive)
- IC50 (cells [11]): 21.7 µM (active)
- EC50 [12]: 10.7 µM (active)
- CC50 [13]: 21.5 µM (active)
- EC50 [14]: 0.631 µM (active)
- EC50 (Melanocortin receptor 4): > 89.2 µM (inactive)
- AC50 [15]: 3.47 µM (active)
- EC50 [16]: 12.7 µM (active)

SMILES: CCCOC(=O)c1c(NC(=O)C2CCCO2)sc(C(=O)OC)c1C (stereo not drawn)
- EC50 [12]: 28.2 µM (active)
- IC50 [17]: > 66 µM (inactive)
- IC50 [18]: > 66 µM (inactive)
- EC50 [16]: 28.7 µM (active)
- IC50 [19]: 69.5 µM (active)

SMILES: Cc1n[nH]c(O)c1C(c1ccccc1[N+](=O)[O-])C(C#N)C#N (stereo not drawn)
- AC50 [20]: 61.1 µM (active)
- EC50 (Protein RecA): 3.93 µM (active)

SMILES: CC(C)(C)Nc1nc(Nc2ccc([N+](=O)[O-])cc2)nc(NC(C)(C)C)n1
- EC50 [5]: > 120 µM (not active)
- EC50 [6]: > 120 µM (not active)
- EC50 [8]: > 120 µM (not active)
- CC50 [21]: > 40 µM (active)

SMILES: COc1ccc(/C=N/NC(=O)Cc2csc(Nc3cccc(C(F)(F)F)c3)n2)c(OC)c1
- IC50 (Bcl-2-related protein A1): > 20 µM (inactive)
- IC50 [1]: 10.1 µM (active)
- IC50 [2]: 14 µM (active)
